Measured values taken from patent publication US12458630B2, “Combination therapy for cancer” (The Regents of the University of California, priority 2020, dated 2025).
“Also recorded” adds a separate entry of the source.

Experiments:
KC6141 cells = experiment: Luminescence ATP detection assay; assay type: cell-based, mouse; settings: 0.5 mM glucose, 24 hrs; for cellular ATP: KC6141 cells on ECM, EIPA 10.5 μM, MBQ-167 500 nM, MRT68921 600 nM
Experimental: Extracellular Matrix (ECM) Preparation. Skin fibroblasts were seeded on 6/12/96-well plates. One day after plating, cells were switched into DMEM (with pyruvate) with 10% dialysed FBS supplemented with or without 500 μM ^3H-proline and 100 μM Vitamin C. Cells were cultured for 6 days with media renewal every 24 h. After six days, skin fibroblasts were removed by washing in 1 ml or 500 μl or 100 μl per well PBS with 0.5% (v/v) Triton X-100 and 20 mM NH4OH. ECM was washed five times with PBS before plating KC6141 cells. The following day, KC6141 cells were switched into the indicated medium for 24 or 72 hrs.
Luminescence ATP Detection Assay. Intracellular ATP level was determined with luminescence ATP detection assay system (PerkinElmer) according to manufacturer's protocol. Briefly, KC6141 cells were grown on 96-well plates coated with or without ECM in the presence of 100 μl 0.5 mM glucose medium with or without EIPA (10.5 μM), MBQ-167 (500 nM), MRT68921 (600 nM) or their combinations for 24 hrs. 50 μl mammalian cell lysis solution was added and shaken for 5 minutes. Next, 50 μl substrate solution was added and shaken for five minutes. Finally, plate was adapted in dark for 10 minutes and luminescence was measured.

MIA PaCa-2 cells = experiment: Cell viability assay (CCK-8); assay type: cell-based, human; settings: for cell viability in NHE1-silenced cells: NHE1 KD MIA PaCa-2 cells
Experimental: Cell viability assay. Cell viability was determined with Cell Counting Kit-8 assay (CCK-8 assay kit, Glpbio). Cells were plated in 96-well plates at a density of 3000 cells (MIA PaCa-2) or 1500 cells (KC6141) per well and incubated overnight prior to treatment. EIPA (10 μM), MRT68921 (600 nM) or erlotinib (2 μM, Sigma) were added to the wells for 72 and 96 hrs. Next, 10 μL of CCK-8 was added to each well. The optical density was read at 450 nm using a microplate reader (FilterMax F5, Molecular Devices, USA) at day 0, 1, 2, 3, and 4. For glutamine-deprivation assays, cells in 96-well plates were rinsed briefly in PBS and incubated in the 0.2 mM glutamine. Glutamine-free DMEM medium was supplemented with 0.2 mM glutamine in the presence of 10% dialysed FBS and 25 mM HEPES. For some conditions, the medium was supplemented with a final concentration of 2% BSA (Fraction V, fatty-acid-, nuclease and protease-free, Calbiochem). For all experiments, media were replaced every 24 hrs. Viable cell counts were obtained using CCK-8 assay described as above.
In some embodiments, cells were plated in 96-well plates coated with or without ECM at a density of 3000 cells (MIA PaCa-2, 1444, 1305, COLO 357/FG) or 1500 cells (KC6141) per well and incubated overnight prior to treatment. EIPA (10.5 μM), IPI549 (600 nM), MBQ-167 (500 nM), MRT68921 (600 nM) or erlotinib (2 μM, Sigma), ML385 (10 μM, Sigma), HCQ (10 μM or 80 μM) or their combinations were added to the wells for 24, 72 or 96 hrs. Next, 10 μL of CCK-8 was added to each well. The optical density was read at 450 nm using a microplate reader (FilterMax F5, Molecular Devices, USA) at day 0, 1, 2, 3, and 4. For glutamine-deprivation assays, cells in 96-well plates were rinsed briefly in PBS and incubated in the 0.2 mM glutamine. Glutamine-free DMEM medium was supplemented with 0.2 mM glutamine in the presence of 10% dialyzed FBS and 25 mM HEPES. For glucose-deprivation assays, cells in 96-well plates were rinsed briefly in PBS and incubated in the 0.5 mM glucose. Glucose-free DMEM medium was supplemented with 0.5 mM glucose in the presence of 10% dialyzed FBS and 25 mM HEPES. For some conditions, the medium was supplemented with a final concentration of 2% BSA (Fraction V, fatty-acid-, nuclease and protease-free, Calbiochem). For all experiments, media were replaced every 24 hrs. Viable cell counts were obtained using CCK-8 assay described as above.

Structure (SMILES) | cellular ATP (KC6141 cells) | cellular ATP in p62/NRF2 ablated cells (KC6141 cells; p62 KD or Nrf2 KD KC6141 cells on ECM) | sensitivity to single agent (cell viability) (MIA PaCa-2 cells; ATG7^Δ or IKKα-deficient MIA PaCa-2 cells, 3 days) | sensitivity of IKKα- or ATG7-deficient cells to EIPA (CCK-8) (MIA PaCa-2 cells; IKKα^Δ / ATG7^Δ vs WT MIA PaCa-2 cells (TP53 mutated), complete medium) | cell viability in NHE1-silenced cells (MIA PaCa-2 cells; 3 days) | proliferation restored by albumin supplementation (MIA PaCa-2 cells; WT and IKKα KO MIA PaCa-2 cells, 0.2 mM glutamine with albumin, 3 days) | cell viability (total viable cells relative to day 0) (MIA PaCa-2 cells; WT and IKKα^Δ MIA PaCa-2 cells, complete medium, EIPA 10.5 μM) | enhanced proliferation caused by loss of IKKα or ATG7 (MIA PaCa-2 cells; WT, IKKα KO, ATG7 KO MIA PaCa-2 cells, complete medium, EIPA 10 μM, days 0-4)
CCN(c1nc(N)c(C(=O)N=C(N)N)nc1Cl)C(C)C [EIPA, 5-(N-ethyl-N-isopropyl) amiloride] | reduced | ineffective | very sensitive | much more sensitive; also recorded: highly sensitive | EIPA-insensitive | completely abrogated | suppression of cell viability | abrogated
CN1CCc2cc(Nc3ncc(C4CC4)c(NCCCNC(=O)C4CCC4)n3)ccc2C1 [MRT68921] | further elevated | – | – | – | severely compromised cell viability | – | – | –
